Where two headings read alike, the source gives them in different places.
Assays:
[1] = system: α-smooth muscle actin (α-SMA) expression; test: Inhibition of DDR1-mediated lung fibrosis (α-SMA expression) in hTGFβ1-stimulated MRC-5 cells (western blot); type: cell-based, Human; settings: for Ratio of α-SMA to GAPDH / α-SMA signal: hTGFβ1 2.5 ng/ml
Method: Human embryonic lung fibroblast MRC-5 cells were inoculated in a 6-well plate and incubated overnight at 37° C. and 5% CO2. 2 μL of compound C1 (gradient concentration in DMSO solution) was added to a cell plate with prepared cells, and was incubated overnight at 37° C. and 5% CO2. hTGFβ1 (which can stimulate DDR1-mediated lung fibrosis manifested by up-regulation of α-smooth muscle actin (α-SMA) expression) was added to the cell plate and incubated at 37° C. and 5% CO2 for 2 hours. Harvest of cell lysates: culture medium was aspirated as much as possible at the end of the culture until the wells were almost dry. 200 μL of ice-cold lysis buffer was added. Lysate was collected into a 1.5 mL eppendorf tube through scraping. Brief vortex was followed by spinning at 12000 rpm for 15 minutes in a refrigerated centrifuge. 5× protein electrophoresis loading buffer was added and then the sample was boiled. The sample supernatant was added to a SDS-PAGE gel, followed by electrophoresis, electrotransfer, blocking, primary antibody (anti-α-SMA antibody and anti-GAPDH antibody) incubation, washing, secondary antibody incubation, washing, and fluorescence development.

[2] = target: phosphorylated DDR1 (p-DDR1) (Homo sapiens (Human), UniProt Q08345); test: Inhibition of phosphorylated DDR1 (p-DDR1) in T47D cells stimulated with rat tail collagen (western blot); type: cell-based
Chain of phosphorylated DDR1 (p-DDR1) (Q08345 19-913): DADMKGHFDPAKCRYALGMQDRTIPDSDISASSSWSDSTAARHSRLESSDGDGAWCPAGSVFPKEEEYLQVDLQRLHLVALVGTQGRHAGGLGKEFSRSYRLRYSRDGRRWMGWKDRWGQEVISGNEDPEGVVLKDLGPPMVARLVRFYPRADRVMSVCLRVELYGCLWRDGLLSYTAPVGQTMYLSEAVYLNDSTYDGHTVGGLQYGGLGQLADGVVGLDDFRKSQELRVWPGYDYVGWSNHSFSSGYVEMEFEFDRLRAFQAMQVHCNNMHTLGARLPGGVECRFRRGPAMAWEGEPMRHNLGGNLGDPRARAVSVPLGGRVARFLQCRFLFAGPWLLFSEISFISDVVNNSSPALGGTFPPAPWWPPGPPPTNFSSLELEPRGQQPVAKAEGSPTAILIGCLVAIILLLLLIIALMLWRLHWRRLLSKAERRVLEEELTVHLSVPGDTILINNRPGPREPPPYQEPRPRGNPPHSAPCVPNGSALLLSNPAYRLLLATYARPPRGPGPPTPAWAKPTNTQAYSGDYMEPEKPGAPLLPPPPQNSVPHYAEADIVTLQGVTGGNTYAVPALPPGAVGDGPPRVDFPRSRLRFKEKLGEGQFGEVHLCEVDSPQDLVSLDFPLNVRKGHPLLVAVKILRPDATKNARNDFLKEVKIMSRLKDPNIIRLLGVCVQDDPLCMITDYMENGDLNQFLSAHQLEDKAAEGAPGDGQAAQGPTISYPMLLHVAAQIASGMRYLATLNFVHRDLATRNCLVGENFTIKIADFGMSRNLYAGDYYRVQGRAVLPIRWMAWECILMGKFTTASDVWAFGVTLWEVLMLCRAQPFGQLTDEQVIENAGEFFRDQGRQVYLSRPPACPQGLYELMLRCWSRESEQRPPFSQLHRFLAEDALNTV
Method: Human breast ductal carcinoma cell line T47D cells were inoculated in a 6-well plate and incubated overnight at 37° C. and 5% CO2. After the cells are prepared, 2 μL of Compound C1 (DMSO solution of gradient concentrations) was added to a cell plate which was incubated at 37° C. and 5% CO2 for 24 hours. Rat tail collagen (capable of stimulating DDR1 phosphorylation) was added to the cell plate followed by incubation for 2 hours at 37° C. and 5% CO2. Harvest of cell lysates: culture medium was aspirated as much as possible at the end of the culture until the wells were almost dry. 200 μL of ice-cold lysis buffer was added. Lysate was collected into a 1.5 mL eppendorf tube through scraping. Brief vortex was followed by spin at 12000 rpm for 15 minutes in a refrigerated centrifuge. 5× protein electrophoresis loading buffer was added and then the sample was boiled. The sample supernatant was added to a SDS-PAGE gel, followed by electrophoresis, electrotransfer, blocking, primary antibody (anti-phospho-DDR1 antibody and anti-GAPDH antibody) incubation, washing, secondary antibody incubation, washing, and fluorescence development.

AXL = AXL (Homo sapiens (Human), UniProt P30530); test: Kinase inhibition profile (HTRF / ADP Glo kinase assay); type: biochemical
Chain of AXL (P30530 26-894, species assumed): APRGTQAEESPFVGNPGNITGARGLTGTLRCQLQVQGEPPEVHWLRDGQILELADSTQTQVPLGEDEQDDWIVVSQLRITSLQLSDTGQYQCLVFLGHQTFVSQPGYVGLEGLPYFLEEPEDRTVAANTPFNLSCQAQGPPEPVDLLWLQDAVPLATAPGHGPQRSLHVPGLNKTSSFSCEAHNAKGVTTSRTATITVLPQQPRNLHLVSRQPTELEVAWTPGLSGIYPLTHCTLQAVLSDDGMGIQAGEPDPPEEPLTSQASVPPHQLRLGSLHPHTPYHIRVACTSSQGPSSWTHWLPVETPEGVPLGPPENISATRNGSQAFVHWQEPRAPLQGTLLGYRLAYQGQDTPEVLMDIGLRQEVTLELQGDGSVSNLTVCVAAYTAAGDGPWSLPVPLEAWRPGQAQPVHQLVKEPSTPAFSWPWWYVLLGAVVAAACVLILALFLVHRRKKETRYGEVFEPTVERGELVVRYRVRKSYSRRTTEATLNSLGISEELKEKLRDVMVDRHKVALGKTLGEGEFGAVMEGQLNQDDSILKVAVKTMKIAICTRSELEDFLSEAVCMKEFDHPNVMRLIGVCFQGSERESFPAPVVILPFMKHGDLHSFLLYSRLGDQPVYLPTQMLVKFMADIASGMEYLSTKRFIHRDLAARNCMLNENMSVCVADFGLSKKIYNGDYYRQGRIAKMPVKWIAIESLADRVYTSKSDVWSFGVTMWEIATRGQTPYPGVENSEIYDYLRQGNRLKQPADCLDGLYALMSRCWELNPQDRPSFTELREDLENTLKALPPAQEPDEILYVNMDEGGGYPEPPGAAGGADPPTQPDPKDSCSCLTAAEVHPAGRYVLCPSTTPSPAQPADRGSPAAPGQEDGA
Method: (§1) HTRF kinase assay: 2×ATP and substrate solution as well as 2× kinase and metal solution were prepared with assay buffer. 25 nL of compound was transferred to 384-well assay plate by Echo 655. After centrifugation, 2.5 μL of 2× kinase/metal ion solution was added to the 384-well assay plate followed by incubation at 25° C. for 10 min. 2.5 μL of 2× substrate and ATP solution was added to the wells followed by incubation at 25° C. for 60 min. 2× XL665 and antibody solution was prepared with assay buffer. 5 μL of kinase detection reagent was added to the wells followed by incubation at 25° C. for 60 min. Fluorescence signals at 620 nm (Cryptate) and 665 nm (XL665) were read with a microtiter plate reader. ADP Glo kinase assay: 2×ATP and substrate solution as well as 2× kinase and metal solution were prepared with assay buffer. 20 nL of compound was transferred to 384-well assay plate by Echo 655. 2 μL of 2× kinase/metal ion solution was added followed by incubation at 25° C. for 10 min in the 384-well assay plate. 2 μL of 2× substrate and ATP solution was added to the wells followed by incubation at 25° C. for 60 min. 4 μL of ADP Glo reagent was added to the wells followed by incubation at 25° C. for 40 min. 8 μL of kinase test reagent was added to the wells followed by incubation at 25° C. for 40 min. The luminescence signals were recorded on a microtiter plate reader. Data analysis: the reaction control (0.5% DMSO) reading was set to 0% inhibition, and the background (10 μM positive control) reading was set to 100% inhibition, then the percent inhibition for each test solution was calculated and the results are shown in Table 2 and FIG. 3.

DYRK1B = DYRK1B (Homo sapiens (Human), UniProt Q9Y463); test: as above; type: biochemical
Chain of DYRK1B (Q9Y463 whole entry, species assumed): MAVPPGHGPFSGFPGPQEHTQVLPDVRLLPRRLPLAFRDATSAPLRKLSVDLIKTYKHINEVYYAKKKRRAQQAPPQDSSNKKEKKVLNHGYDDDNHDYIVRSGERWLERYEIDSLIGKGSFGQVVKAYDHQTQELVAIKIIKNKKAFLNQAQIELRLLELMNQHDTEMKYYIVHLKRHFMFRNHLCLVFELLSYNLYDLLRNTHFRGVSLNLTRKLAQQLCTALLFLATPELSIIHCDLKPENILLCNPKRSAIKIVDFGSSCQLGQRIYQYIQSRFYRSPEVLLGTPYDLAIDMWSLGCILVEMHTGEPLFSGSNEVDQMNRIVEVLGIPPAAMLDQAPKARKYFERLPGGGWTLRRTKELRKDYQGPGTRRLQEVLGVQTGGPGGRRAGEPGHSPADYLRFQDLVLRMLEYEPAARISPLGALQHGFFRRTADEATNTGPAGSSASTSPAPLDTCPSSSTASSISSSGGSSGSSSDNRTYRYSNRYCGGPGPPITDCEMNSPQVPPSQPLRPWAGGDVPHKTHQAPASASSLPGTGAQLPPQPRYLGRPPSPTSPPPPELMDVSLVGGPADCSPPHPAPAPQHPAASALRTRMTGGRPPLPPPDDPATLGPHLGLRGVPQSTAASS
Method: as §1

CDK18/CyclinY = CDK18/CyclinY (Homo sapiens (Human), UniProt Q07002); test: as above; type: biochemical
Chain of CDK18/CyclinY (Q07002 whole entry, species assumed): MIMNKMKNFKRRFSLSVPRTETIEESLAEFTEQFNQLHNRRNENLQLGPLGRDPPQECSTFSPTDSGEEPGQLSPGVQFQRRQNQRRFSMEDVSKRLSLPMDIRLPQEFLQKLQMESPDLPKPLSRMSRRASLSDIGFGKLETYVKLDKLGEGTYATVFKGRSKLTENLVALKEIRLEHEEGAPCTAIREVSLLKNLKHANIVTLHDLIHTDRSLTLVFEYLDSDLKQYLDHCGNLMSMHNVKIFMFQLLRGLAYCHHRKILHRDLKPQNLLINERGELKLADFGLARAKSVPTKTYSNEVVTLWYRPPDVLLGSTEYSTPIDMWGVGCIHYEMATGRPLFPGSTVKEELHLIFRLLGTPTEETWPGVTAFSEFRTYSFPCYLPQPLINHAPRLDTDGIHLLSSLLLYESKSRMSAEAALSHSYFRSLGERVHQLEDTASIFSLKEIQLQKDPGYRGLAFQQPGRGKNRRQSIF
Chain of CDK18/CyclinY (Q8ND76 whole entry partner, species assumed): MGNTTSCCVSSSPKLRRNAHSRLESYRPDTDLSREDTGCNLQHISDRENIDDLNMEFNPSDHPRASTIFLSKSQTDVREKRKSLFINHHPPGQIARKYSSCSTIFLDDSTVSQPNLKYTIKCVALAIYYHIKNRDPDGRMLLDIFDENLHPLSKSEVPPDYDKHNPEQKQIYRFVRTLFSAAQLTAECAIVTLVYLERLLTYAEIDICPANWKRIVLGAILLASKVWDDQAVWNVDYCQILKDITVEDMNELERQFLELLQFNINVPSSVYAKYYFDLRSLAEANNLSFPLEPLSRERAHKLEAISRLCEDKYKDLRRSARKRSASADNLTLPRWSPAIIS
Method: as §1

CK1γ2 = CK1γ2 (Homo sapiens (Human), UniProt P78368); test: as above; type: biochemical
Chain of CK1γ2 (P78368 whole entry): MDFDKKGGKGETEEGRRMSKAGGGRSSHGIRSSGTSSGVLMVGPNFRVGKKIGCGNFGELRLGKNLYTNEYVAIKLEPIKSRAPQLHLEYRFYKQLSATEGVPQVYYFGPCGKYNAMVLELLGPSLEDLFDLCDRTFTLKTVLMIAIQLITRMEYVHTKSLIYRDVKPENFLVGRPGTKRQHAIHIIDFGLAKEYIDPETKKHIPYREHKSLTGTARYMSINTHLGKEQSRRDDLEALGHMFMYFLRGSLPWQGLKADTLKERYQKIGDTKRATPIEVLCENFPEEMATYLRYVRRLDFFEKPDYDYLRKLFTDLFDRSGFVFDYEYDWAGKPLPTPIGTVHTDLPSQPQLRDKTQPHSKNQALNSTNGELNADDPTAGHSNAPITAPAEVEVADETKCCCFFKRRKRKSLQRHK
Method: as §1

TRKB = TRKB (Homo sapiens (Human), UniProt Q16620); test: as above; type: biochemical
Chain of TRKB (Q16620 32-822, species assumed): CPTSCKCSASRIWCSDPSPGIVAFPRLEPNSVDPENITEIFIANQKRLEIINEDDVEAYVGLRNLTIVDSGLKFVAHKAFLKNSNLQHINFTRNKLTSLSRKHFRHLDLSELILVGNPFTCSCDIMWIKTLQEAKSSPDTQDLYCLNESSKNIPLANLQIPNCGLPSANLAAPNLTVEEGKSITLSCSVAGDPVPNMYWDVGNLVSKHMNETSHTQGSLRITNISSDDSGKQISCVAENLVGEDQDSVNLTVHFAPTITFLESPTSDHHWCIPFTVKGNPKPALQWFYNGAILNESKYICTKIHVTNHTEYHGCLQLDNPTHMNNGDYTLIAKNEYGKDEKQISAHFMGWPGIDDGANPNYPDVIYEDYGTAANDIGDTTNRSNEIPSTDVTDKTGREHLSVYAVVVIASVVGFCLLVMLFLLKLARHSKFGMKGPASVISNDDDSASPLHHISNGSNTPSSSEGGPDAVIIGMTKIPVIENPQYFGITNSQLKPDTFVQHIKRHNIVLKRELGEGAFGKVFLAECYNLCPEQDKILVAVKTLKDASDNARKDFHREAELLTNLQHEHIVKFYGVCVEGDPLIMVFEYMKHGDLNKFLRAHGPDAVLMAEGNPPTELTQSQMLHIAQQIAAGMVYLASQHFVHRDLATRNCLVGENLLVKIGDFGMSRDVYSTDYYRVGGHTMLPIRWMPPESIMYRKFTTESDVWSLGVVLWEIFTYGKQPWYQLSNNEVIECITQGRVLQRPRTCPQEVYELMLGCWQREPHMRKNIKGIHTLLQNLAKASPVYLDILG
Method: as §1

[3] = 1 uM Compound C1, read-out: % Inhibition (First measurement)
[4] = 1 uM Compound C1, read-out: % Inhibition (Second measurement)
[5] = 1 uM Compound C1, read-out: Average inhibition (%)

## Cc1ccc(C(=O)Nc2ccccn2)cc1C#Cc1cnc2cc(C3=CCCCC3)cnn12 [Compound C1, 3-{2-[7-(cyclohex-1-en-1-yl)imidazo[1,2-b]pyridazin-3-yl]ethynyl}-4-methyl-N-(pyridin-2-yl)benzamide]
[1]
  Inhibition of DDR1-mediated lung fibrosis at the cellular level (in words): can inhibit DDR1-mediated lung fibrosis at the cellular level
[1]; Homo sapiens, MRC5, hTGFβ1 2.5 ng/ml, compound C1 2.44 nM
  inhibition at 0.00244 µM: 103%
[1]; Homo sapiens, MRC5, hTGFβ1 2.5 ng/ml, compound C1 9.77 nM
  inhibition at 0.00977 µM: 103%
[1]; Homo sapiens, MRC5, hTGFβ1 2.5 ng/ml, compound C1 39.06 nM
  inhibition at 0.03906 µM: 103%
[1]; Homo sapiens, MRC5, hTGFβ1 2.5 ng/ml, compound C1 156.25 nM
  inhibition at 0.15625 µM: 109%
[1]; Homo sapiens, MRC5, hTGFβ1 2.5 ng/ml, compound C1 625.00 nM
  inhibition at 0.625 µM: 48.2%
[1]; Homo sapiens, MRC5, hTGFβ1 2.5 ng/ml, compound C1 2500.00 nM
  inhibition at 2.5 µM: 11.7%
[1]; compound C1 2.44 nM
  Ratio of α-SMA to GAPDH: 1.1612
  α-SMA signal: 1390356
[1]; compound C1 9.77 nM
  Ratio of α-SMA to GAPDH: 1.1646
  α-SMA signal: 1386165
[1]; compound C1 39.06 nM
  Ratio of α-SMA to GAPDH: 1.1681
  α-SMA signal: 1304919
[1]; compound C1 156.25 nM
  Ratio of α-SMA to GAPDH: 1.2342
  α-SMA signal: 1353660
[1]; compound C1 625.00 nM
  Ratio of α-SMA to GAPDH: 0.5459
  α-SMA signal: 629772
[1]; compound C1 2500.00 nM
  Ratio of α-SMA to GAPDH: 0.1330
  α-SMA signal: 4686
[2]
  Inhibition of the phosphorylation of DDR1 at the cellular level (in words): can inhibit the phosphorylation of DDR1 at the cellular level
[2]; compound C1 1.5 nM
  Ratio of p-DDR1 to GAPDH: 0.3282
  inhibition at 0.0015 µM: 51.5%
  p-DDR1 signal: 490770
[2]; compound C1 4.6 nM
  Ratio of p-DDR1 to GAPDH: 0.2221
  inhibition at 0.0046 µM: 67.7%
  p-DDR1 signal: 350490
[2]; compound C1 13.7 nM
  Ratio of p-DDR1 to GAPDH: 0.3020
  inhibition at 0.0137 µM: 55.5%
  p-DDR1 signal: 417870
[2]; compound C1 41.1 nM
  Ratio of p-DDR1 to GAPDH: 0.4145
  inhibition at 0.0411 µM: 38.4%
  p-DDR1 signal: 583470
[2]; compound C1 123 nM
  Ratio of p-DDR1 to GAPDH: 0.2107
  inhibition at 0.123 µM: 69.4%
  p-DDR1 signal: 313140
[2]; compound C1 370 nM
  Ratio of p-DDR1 to GAPDH: 0.1244
  inhibition at 0.37 µM: 82.5%
  p-DDR1 signal: 164340
[2]; compound C1 1111 nM
  Ratio of p-DDR1 to GAPDH: 0.0363
  inhibition at 1.111 µM: 95.9%
  p-DDR1 signal: 51870
[2]; compound C1 3333 nM
  Ratio of p-DDR1 to GAPDH: 0.0183
  inhibition at 3.333 µM: 98.7%
  p-DDR1 signal: 27360
[2]; compound C1 10000 nM
  Ratio of p-DDR1 to GAPDH: 0.0094
  inhibition at 10 µM: 100%
  p-DDR1 signal: 14730
AXL; [3]
  inhibition at 1 µM: 15.1%
AXL; [4]
  inhibition at 1 µM: 13.3%
AXL; [5]
  inhibition at 1 µM: 14.2%
DYRK1B; [3]
  inhibition at 1 µM: 4.14%
DYRK1B; [4]
  inhibition at 1 µM: 9.03%
DYRK1B; [5]
  inhibition at 1 µM: 6.58%
CDK18/CyclinY; [3]
  inhibition at 1 µM: 18%
CDK18/CyclinY; [4]
  inhibition at 1 µM: 2.55%
CDK18/CyclinY; [5]
  inhibition at 1 µM: 10.3%
CK1γ2; [3]
  inhibition at 1 µM: -6.26%
CK1γ2; [4]
  inhibition at 1 µM: -6.88%
CK1γ2; [5]
  inhibition at 1 µM: -6.57%
TRKB; [3]
  inhibition at 1 µM: 20.8%
TRKB; [4]
  inhibition at 1 µM: 40.4%
TRKB; [5]
  inhibition at 1 µM: 30.6%
